The test addresses T1, DLK (Homo sapiens, UniProt Q12852).
T1 construct: N-terminally GST-tagged DLK (catalytic domain amino acid 1-520) (Carna Bioscience); GST (N); purchased Carna Bioscience
T1 sequence (Q12852 1-520): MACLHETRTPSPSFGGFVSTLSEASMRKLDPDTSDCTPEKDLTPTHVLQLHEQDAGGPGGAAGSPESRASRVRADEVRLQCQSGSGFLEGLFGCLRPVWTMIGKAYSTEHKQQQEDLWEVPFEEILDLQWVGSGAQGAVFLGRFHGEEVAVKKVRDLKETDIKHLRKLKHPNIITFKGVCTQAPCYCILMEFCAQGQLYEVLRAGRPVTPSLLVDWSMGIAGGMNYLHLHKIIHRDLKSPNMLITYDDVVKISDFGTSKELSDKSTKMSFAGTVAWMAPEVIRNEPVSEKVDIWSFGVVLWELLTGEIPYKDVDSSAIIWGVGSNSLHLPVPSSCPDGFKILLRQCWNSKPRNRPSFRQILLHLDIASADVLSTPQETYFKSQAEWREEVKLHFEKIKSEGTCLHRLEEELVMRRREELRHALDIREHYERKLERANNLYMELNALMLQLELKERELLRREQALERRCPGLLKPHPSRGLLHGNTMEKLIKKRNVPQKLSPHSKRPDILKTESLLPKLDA
Briefly: DLK TR-FRET assay. It counts as biochemical. The following applies: 5 nM GST-tagged DLK (catalytic domain amino acid 1-520), 40 nM HIS-tagged MKK4 K131M substrate, 30 μM ATP, 60 minutes. As to the method:
DLK TR-FRET assay: DLK kinase reactions (20 μL) containing 5 nM N-terminally GST-tagged DLK (catalytic domain amino acid 1-520) (Carna Bioscience), 40 nM N-terminally HIS-tagged MKK4 K131M substrate, and 30 μM ATP in kinase reaction buffer (50 mM HEPES, pH 7.5, 0.01% Triton X-100, 0.01% Bovine γ-Globulins, 2 mM DTT, 10 mM MgCl2 and 1 mM EGTA), and testing compound 1:3 serial diluted starting at 20 uM were incubated at ambient temperature for 60 minutes in 384 well OptiPlate (Perkin Elmer). To quench kinase reactions and detect phosphorylated MKK4, 15 μL of TR-FRET antibody mixture containing 2 nM anti-phosphorylated MKK4 labeled with Europium cryptate (Cisbio) and 23 nM anti-HIS labeled with D2 (Cisbio) in detection buffer (25 mM Tris pH 7.5, 100 mM NaCl, 100 mM EDTA, 0.01% Tween-20, and 200 mM KF) was added to the reaction mixture. The detection mixture was incubated for 3 hours at ambient temperature and the TR-FRET was detected with an EnVision multilabel plate reader (Perkin-Elmer) using the LANCE/DELFIA Dual Enh label from Perkin-Elmer (excitation filter: UV2 (TRF) 320 and emission filters: APC 665 and Europium 615).

Consider 27 compounds from patent US9399636B2, “Substituted dipyridylamines and uses thereof” (Genentech, Inc., priority 2012, dated 2016).

Structures are written as SMILES.

By Ki is commonly meant the equilibrium dissociation constant of an inhibitor or competing ligand from its target. Low values mean a stronger hold on the target, high ones a looser hold on the target.

`N#Cc1ccnc(Nc2cc(C3(C#N)CCOCC3)cc(N3CC(F)C3)n2)c1` [Example 46, 2-[4-(4-Cyano-tetrahydro-pyran-4-yl)-6-(3-fluoro-azetidin-1-yl)-pyridin-2-ylamino]-isonicotinonitrile] came in with a Ki of 13 nM. The value for `N#Cc1ccnc(Nc2cc(C3(C#N)CCOCC3)cc(N3CCCC3=O)n2)c1` [Example 47, 2-[4-(4-Cyano-tetrahydro-pyran-4-yl)-6-(2-oxo-pyrrolidin-1-yl)-pyridin-2-ylamino]-isonicotinonitrile] was 40 nM. The value for `COC1CN(c2cc(C3CCN(C4COC4)CC3)cc(Nc3cc(C(F)F)ccn3)n2)C1` [Example 48, (4-Difluoromethyl-pyridin-2-yl)-[6-(3-methoxy-azetidin-1-yl)-1′-oxetan-3-yl-1′,2′,3′,4′,5′,6′-hexahydro-[4,4′]bipyridinyl-2-yl]-amine] was 21 nM; that for `N#CC1(c2cc(Nc3cc(C(F)F)ccn3)nc(N3CCCC3=O)c2)CCOCC1` [Example 49, 4-[2-(4-Difluoromethyl-pyridin-2-ylamino)-6-(2-oxo-pyrrolidin-1-yl)-pyridin-4-yl]-tetrahydro-pyran-4-carbonitrile] was 19 nM. The result for `FC(F)c1ccnc(Nc2cc(C3CCN(C4COC4)CC3)cc(N3CC4CC4C3)n2)c1` (stereo not drawn) [Example 50, [6-(3-Aza-bicyclo[3.1.0]hex-3-yl)-1′-oxetan-3-yl-1′,2′,3′,4′,5′,6′-hexahydro-[4,4′]bipyridinyl-2-yl]-(4-difluoromethyl-pyridin-2-yl)-amine] reads 1 nM. In turn, `FC(F)c1ccnc(Nc2cc(C3CCN(C4COC4)CC3)cc(N3CCC3)n2)c1` [Example 51, (6-Azetidin-1-yl-1′-oxetan-3-yl-1′,2′,3′,4′,5′,6′-hexahydro-[4,4′]bipyridinyl-2-yl)-(4-difluoromethyl-pyridin-2-yl)-amine] registered a Ki of 2.4 nM. The result for `N#CC1(c2cc(Nc3cc(C(F)F)ccn3)nc(N3CC4CC4C3)c2)CCOCC1` (stereo not drawn) [Example 52, 4-[2-(3-Aza-bicyclo[3.1.0]hex-3-yl)-6-(4-difluoromethyl-pyridin-2-ylamino)-pyridin-4-yl]-tetrahydro-pyran-4-carbonitrile] reads 2 nM; that for `N#CC1(c2cc(Nc3cc(C(F)F)ccn3)nc(N3CCC3)c2)CCOCC1` [Example 53, 4-[2-Azetidin-1-yl-6-(4-difluoro-methyl-pyridin-2-ylamino)-pyridin-4-yl]-tetrahydro-pyran-4-carbonitrile], 24 nM.

With `COC1CN(c2cc(C3(C#N)CCOCC3)cc(Nc3cc(C(F)F)ccn3)n2)C1` [Example 54, 4-[2-(4-Difluoromethyl-pyridin-2-ylamino)-6-(3-methoxy-azetidin-1-yl)-pyridin-4-yl]-tetrahydro-pyran-4-carbonitrile], the Ki is 21 nM. The Ki values of the last two compounds are within 1.5-fold of each other. `N#CC1(c2cc(Nc3cc(C(F)F)ccn3)nc(N3CC(F)C3)c2)CCOCC1` [Example 55, 4-[2-(4-Difluoromethyl-pyridin-2-ylamino)-6-(3-fluoro-azetidin-1-yl)-pyridin-4-yl]-tetrahydro-pyran-4-carbonitrile] came in with a Ki of 8.9 nM. For `N#CC1(c2cc(Nc3cc(C(F)F)ccn3)nc(N3CCC(F)(F)C3)c2)CCOCC1` [Example 56, 4-[2-(4-Difluoromethyl-pyridin-2-ylamino)-6-(3,3-difluoro-pyrrolidin-1-yl)-pyridin-4-yl]-tetrahydro-pyran-4-carbonitrile], the affinity corresponds to a Ki of 2.1 nM. Compared with the last compound, the Ki is about 4.2-fold lower. The result for `CC(=O)N1CCC(c2cc(Nc3cc(C(F)F)ccn3)nc(C3CC3)c2)CC1` [Example 57, 1-[6′-Cyclopropyl-2′-(4-difluoromethyl-pyridin-2-ylamino)-3,4,5,6-tetrahydro-2H-[4,4′]bipyridinyl-1-yl]-ethanone] reads 3.5 nM. The result for `CCc1cc(C2CCN(C(C)=O)CC2)cc(Nc2cc(C(F)F)ccn2)n1` [Example 58, 1-[2′-(4-Difluoromethyl-pyridin-2-ylamino)-6′-ethyl-3,4,5,6-tetrahydro-2H-[4,4′]bipyridinyl-1-yl]-ethanone] reads 64 nM; that for `CC(=O)N1CCC(c2cc(Nc3cc(C#N)ccn3)nc(C3CC3)c2)CC1` [Example 59, 2-(1′-Acetyl-6-cyclopropyl-1′,2′,3′,4′,5′,6′-hexahydro-[4,4′]bipyridinyl-2-ylamino)-isonicotinonitrile], 1.5 nM.

Regarding `CCc1cc(C2CCN(C(C)=O)CC2)cc(Nc2cc(C#N)ccn2)n1` [Example 60, 2-(1′-Acetyl-6-ethyl-1′,2′,3′,4′,5′,6′-hexahydro-[4,4′]bipyridinyl-2-ylamino)-isonicotinonitrile], the affinity, expressed as Ki, was 28 nM. The result for `N#Cc1ccnc(Nc2cc(C3(C#N)CCOCC3)cc(N3CCC(F)(F)C3)n2)c1` [Example 61, 2-[4-(4-Cyano-tetrahydro-pyran-4-yl)-6-(3,3-difluoro-pyrrolidin-1-yl)-pyridin-2-ylamino]-isonicotinonitrile] reads 4.7 nM; that for `CC(=O)N1CCC(c2cc(C)nc(Nc3cc(C(F)F)ccn3)c2)CC1` [Example 62, 1-[2′-(4-Difluoromethyl-pyridin-2-ylamino)-6′-methyl-3,4,5,6-tetrahydro-2H-[4,4′]bipyridinyl-1-yl]-ethanone], 170 nM; that for `N#Cc1ccnc(Nc2cc(C3(C#N)CCOCC3)cc(C3CC3)n2)c1` [Example 63, 2-[4-(4-Cyano-tetrahydro-pyran-4-yl)-6-cyclopropyl-pyridin-2-ylamino]-isonicotinonitrile], 8.6 nM.

Consider `Cc1cc(C2(C#N)CCOCC2)cc(Nc2cc(C#N)ccn2)n1` [Example 64, 2-[4-(4-Cyano-tetrahydro-pyran-4-yl)-6-methyl-pyridin-2-ylamino]-isonicotinonitrile], for which the affinity corresponds to a Ki of 170 nM. The result for `CC(=O)N1CCC(c2cc(Cl)nc(Nc3cc(C#N)ccn3)c2)CC1` [Example 65, 2-(1′-Acetyl-6-chloro-1′,2′,3′,4′,5′,6′-hexahydro-[4,4′]bipyridinyl-2-ylamino)-isonicotinonitrile] reads 30 nM; that for `N#CC1(c2cc(Cl)nc(Nc3cc(C(F)F)ccn3)c2)CCOCC1` [Example 66, 4-[2-Chloro-6-(4-difluoromethyl-pyridin-2-ylamino)-pyridin-4-yl]-tetrahydro-pyran-4-carbonitrile], 43 nM. The result for `N#Cc1ccnc(Nc2cc(C3(C#N)CCOCC3)cc(N3CC4CC4C3)n2)c1` (stereo not drawn) [Example 67, 2-[6-(3-Aza-bicyclo[3.1.0]hex-3-yl)-4-(4-cyano-tetrahydro-pyran-4-yl)-pyridin-2-ylamino]-isonicotinonitrile] reads 0.4 nM.

With `C[C@@H]1CCCN1c1cc(C2CCN(C3COC3)CC2)cc(Nc2cc(C(F)F)ccn2)n1` [Example 68, (4-Difluoromethyl-pyridin-2-yl)-[6-((R)-2-methyl-pyrrolidin-1-yl)-1′-oxetan-3-yl-1′,2′,3′,4′,5′,6′-hexahydro-[4,4′]bipyridinyl-2-yl]-amine], the affinity, expressed as Ki, was 0.3 nM. Take `N#Cc1ccnc(Nc2cc(C3(C#N)CCOCC3)cc(N3CC4CC(F)(F)C4C3)n2)c1` (stereo not drawn) [Example 69, 2-[4-(4-Cyano-tetrahydro-pyran-4-yl)-6-(6,6-difluoro-3-aza-bicyclo[3.2.0]hept-3-yl)-pyridin-2-ylamino]-isonicotinonitrile]: the affinity, expressed as Ki, was 4 nM. Compared with the last compound, the Ki is about 13-fold higher.

`N#Cc1ccnc(Nc2cc(C3CCN(C4COC4)CC3)cc(N3CCC[C@@H]3C(F)(F)F)n2)c1` [Example 70, 2-[1′-Oxetan-3-yl-6-((R)-2-trifluoromethyl-pyrrolidin-1-yl)-1′,2′,3′,4′,5′,6′-hexahydro-[4,4′]bipyridinyl-2-ylamino]-isonicotinonitrile]: the Ki came out at 1.8 nM. The result for `FC(F)c1ccnc(Nc2cc(C3CCN(C4COC4)CC3)cc(N3CCC(F)(F)C3)n2)c1` [Example 71, (4-Difluoromethyl-pyridin-2-yl)-[6-(3,3-difluoro-pyrrolidin-1-yl)-1′-oxetan-3-yl-1′,2′,3′,4′,5′,6′-hexahydro-[4,4′]bipyridinyl-2-yl]-amine] reads 0.36 nM; that for `Cc1cc(C2CCN(CC(F)(F)F)CC2)cc(Nc2cc(C#N)ccn2)n1` [Example 72, 2-[6-Methyl-1′-(2,2,2-trifluoro-ethyl)-1′,2′,3′,4′,5′,6′-hexahydro-[4,4′]bipyridinyl-2-ylamino]-isonicotinonitrile], 150 nM.
